pIC50: −log10 of the molar value. In brackets after ≈: the same amount, converted by molar mass.
Experiments:
[1] = biological target: T1, 1-deoxy-D-xylulose 5-phosphate reductoisomerase (Escherichia coli K-12, UniProt P45568); assay: Inhibition of Escherichia coli DXR assessed as inhibition constant pre-incubated for 2 mins in presence of NADPH by spectrophotometric assay
T1 sequence (P45568 whole entry): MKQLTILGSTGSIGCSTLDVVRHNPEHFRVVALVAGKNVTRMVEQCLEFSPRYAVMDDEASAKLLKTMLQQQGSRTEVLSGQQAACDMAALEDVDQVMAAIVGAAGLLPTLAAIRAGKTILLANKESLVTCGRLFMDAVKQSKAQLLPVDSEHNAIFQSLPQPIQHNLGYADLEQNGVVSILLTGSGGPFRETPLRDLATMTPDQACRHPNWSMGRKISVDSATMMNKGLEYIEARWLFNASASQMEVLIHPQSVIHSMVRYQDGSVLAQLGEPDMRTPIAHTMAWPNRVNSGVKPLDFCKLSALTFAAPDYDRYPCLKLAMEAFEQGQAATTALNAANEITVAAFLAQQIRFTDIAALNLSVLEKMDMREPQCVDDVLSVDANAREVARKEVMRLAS

Escherichia coli [2] = assay: Antimicrobial activity against Escherichia coli deltaGlpT JW2234-2 assessed as minimal inhibitory concentration incubated for 18 hrs by microdilution assay; type: functional
Escherichia coli [3] = assay: Antimicrobial activity against Escherichia coli BW25113 assessed as minimal inhibitory concentration incubated for 18 hrs by microdilution assay; type: functional
[4] = biological target: T1, 1-deoxy-D-xylulose 5-phosphate reductoisomerase; assay: Inhibition of recombinant Escherichia coli DXR in presence of NADPH
Plasmodium falciparum = assay: Antiplasmodial activity against Plasmodium falciparum K1 infected in human erythrocyte assessed as assessed as inhibition of parasite growth; type: functional, organism-based
[5] = biological target: T1, 1-deoxy-D-xylulose 5-phosphate reductoisomerase; assay: Inhibition of His-tagged Escherichia coli DXR using DXP as substrate incubated for 1 min in presence of NADPH by UV-Vis spectrophotometric assay

Structure (SMILES): O=C(CCCP(=O)(O)O)NO
- pIC50 [1]: 6.77

Structure (SMILES): CN(O)C(=O)CCCP(=O)(O)O
- pIC50 [1]: 7.32

Structure (SMILES): CN1CC(=O)OB(CCCP(=O)(O)O)OC(=O)C1
- MIC90 (Escherichia coli [2]): 52 µg/mL (≈ 186 µM)
- MIC90 (Escherichia coli [3]): 63 µg/mL (≈ 226 µM)

Structure (SMILES): CN(O)C(=O)CCCC(=O)O
- pIC50 [4]: 4.60

Structure (SMILES): CS(=O)(=O)c1ccccc1NC(=O)CCCP(=O)(O)O
- pIC50 (Plasmodium falciparum): < 4.19

Structure (SMILES): O=P(O)(O)CCCB(O)O
- MIC90 (Escherichia coli [2]): 37 µg/mL (≈ 220 µM)
- pIC50 [5]: 3.90
- MIC90 (Escherichia coli [3]): 53 µg/mL (≈ 316 µM)

Structure (SMILES): CC(=O)c1ccccc1NC(=O)CCCP(=O)(O)O
- pIC50 (Plasmodium falciparum): < 4.19

Structure (SMILES): O=C(CCCP(=O)(O)O)Nc1ccccc1F
- pIC50 (Plasmodium falciparum): < 4.19

From ChEMBL document CHEMBL5226280, “Non-hydroxamate inhibitors of 1-deoxy-d-xylulose 5-phosphate reductoisomerase (DXR): A critical review and future perspective” (Eur J Med Chem, 2021)
